As usually defined, the inhibition is how much of the control response was suppressed.

Consider two compounds from US9006278B2, “Controlled release systems of pluribioactive antifungal drugs and applications thereof” (Poly-Med, Inc., priority 2010, dated 2015).

Holding throughout (assay type): cell-based
Assay [1] concerns SKOV3 ovarian cancer cells. The experiment in a line: Cell viability, CellTiter 96 AQueous One (SKOV3). Particulars: Homo sapiens, SK-OV-3, 48 h, 2 days. Here is the method:
(§1) To examine the effect of miconazole and ketoconazole on cancer cells (SKOV3, OVCAR3, and MCF7) and vascular cells (human aortic smooth muscle and umbilical vein endothelium), each cell type was seeded in separate 24-well plates at a density of approximately 50,000 to 100,000 cells/cm^2. After incubation under standard cell culture conditions (that is, a 37° C., humidified, 5% CO2 environment) for approximately 24 hours, media was aspirated from each well, and replaced with the appropriate treatments. Miconazole or ketoconazole was dissolved in ethanol to create a stock solution. […] The same volume of ethanol was added to control wells, but no drug was present. Cells were further incubated for 2 days. At that time, cell viability was measured using a commercially available kit, according to manufacturer instructions (CellTiter 96® AQueous One Solution Cell Proliferation Assay, Promega). All samples were prepared in triplicate. Percent inhibition was then calculated using the absorbance values.

Assay [2] has as its system human aortic smooth muscle cells. The experiment in a line: Cell viability, CellTiter 96 AQueous One (smooth muscle). As to conditions: 48 h, 2 days. Here is the method:
as §1

In assay [3] the test system is OVCAR3 ovarian cancer cells. The experiment in a line: Cell viability, CellTiter 96 AQueous One (OVCAR3). As to conditions: Homo sapiens, OVCAR-3, 48 h, 2 days. Here is the method:
as §1

A further assay concerns MCF7 breast cancer cells. The experiment in a line: Cell viability, CellTiter 96 AQueous One (MCF7). As to conditions: Homo sapiens, MCF7, 48 h, 2 days. How it is done: as §1
In a further assay the test system is Candida albicans. The experiment in a line: Broth culture growth inhibition, absorbance at 600 nm (Candida albicans). As to conditions: overnight (approx. 16 hours), read-out: % Inhibition C. albicans. Here is the method:
(§2) Bacterial and fungal cultures (Staphylococcus aureus and Candida albicans) were maintained according to manufacturer (ATCC) instructions. Broth was inoculated according to 0.5 McFarland standard (0.05 absorbance reading). Miconazole or ketoconazole was dissolved in ethanol to create a stock solution. Cultures were incubated overnight (approximately 16 hours), at which time relative absorbance was recorded for each sample using a spectrophotometer (600 nm wavelength). Absorbance values were then used to calculate percent inhibition.

The test system of another assay is Staphylococcus aureus. The experiment in a line: Broth culture growth inhibition, absorbance at 600 nm (Staphylococcus aureus). Particulars: overnight (approx. 16 hours), read-out: % Inhibition S. aureus. Here is the method: as §2
Assay [4] relates to umbilical vein endothelium cells. The experiment in a line: Cell viability, CellTiter 96 AQueous One (endothelium). As to conditions: Homo sapiens, 48 h, 2 days, read-out: % Inhibition Endothelial. How it is done:
as §1

`CC(=O)N1CCN(c2ccc(OCC3COC(Cn4ccnc4)(c4ccc(Cl)cc4Cl)O3)cc2)CC1` (stereo not shown) [Ketoconazole, ketoconazole]: the inhibition at 40 µg/mL in assay [1] (40 μg/mL) came to 0%; in assay [2] (40 μg/mL), 31%; in assay [3] (40 μg/mL) it was 0%; with MCF7 breast cancer cells (40 μg/mL), 58%; in the assay on Candida albicans (40 μg/mL) it was 93.8%; in the assay on Staphylococcus aureus (40 μg/mL), 32.7%. In addition, the inhibition at 40 µg/mL in assay [4] (40 μg/mL) came out at 16%. The inhibition at 80 µg/mL in assay [1] (80 μg/mL) was 51%; in assay [2] (80 μg/mL), 68%; in assay [3] (80 μg/mL), 57%; with MCF7 breast cancer cells (80 μg/mL), 50%; in the assay on Candida albicans (80 μg/mL), 98.6%; in the assay on Staphylococcus aureus (80 μg/mL), 67.6%. Also, in assay [4] (80 μg/mL), the inhibition at 80 µg/mL came out at 38%.
Regarding `Clc1ccc(COC(Cn2ccnc2)c2ccc(Cl)cc2Cl)c(Cl)c1` (stereo not shown) [Miconazole, miconazole], the inhibition at 20 µg/mL in assay [1] (20 μg/mL) amounted to 13%; in assay [2] (20 μg/mL) it was 58%; in assay [3] (20 μg/mL), 19%; in the assay on MCF7 breast cancer cells (20 μg/mL) it was 19%; in the assay on Candida albicans (20 μg/mL), 98.3%; with Staphylococcus aureus (20 μg/mL), 76.7%. The inhibition at 20 µg/mL in assay [4] (20 μg/mL) is 18%. Also, the inhibition at 60 µg/mL in assay [1] (60 μg/mL) worked out at 61%; in assay [2] (60 μg/mL) it was 84%; in assay [3] (60 μg/mL) it was 57%; in the assay on MCF7 breast cancer cells (60 μg/mL), 55%; in the assay with Candida albicans (60 μg/mL), 73.2%; in the assay on Staphylococcus aureus (60 μg/mL), 65%. For the same compound, the inhibition at 60 µg/mL in assay [4] (60 μg/mL) turned out to be 58%.
